Laboratory results: the supplement of paper PMC11061612

Columns and labels:
Test in all cases: Bliss excess, mean over the matrix (fraction); higher = more synergy
[1] = tested on: SR (Other Blood Carcinomas)
Summary of the method: (§1)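 Cell lines grown in DMEM/F12 or RPMI with 10% FBS were plated in 1536-well plates and held 24 hours at 37°C, 5% CO2 before 72 hours of exposure to two-drug dose matrices, with DMSO typically at 0.2%. CellTiter-Glo 2.0 luminescence gave viability, which was converted to inhibition. Vehicle wells were set to 0 and blank wells to 1. Combination Emax is the second-highest inhibition in the matrix, and Bliss excess is the observed combination effect minus the expected EA + EB − EA·EB, where EA and EB are the single-agent effects.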

[2] = tested on: MFM-223 (Breast Carcinoma)
Summary of the method: as §1

[3] = tested on: P12-ICHIKAWA (T-Lymphoblastic Leukemia)
Summary of the method: as §1

[4] = tested on: KCL-22 (Chronic Myelogenous Leukemia)
Summary of the method: as §1

[5] = tested on: NCI-H2818 (Mesothelioma)
Summary of the method: as §1

[6] = tested on: ES8 (Ewing's Sarcoma)
Summary of the method: as §1

[7] = tested on: MS751 (Cervical Carcinoma)
Summary of the method: as §1

[8] = tested on: LN-18 (Glioblastoma)
Summary of the method: as §1

[9] = tested on: DiFi (Colorectal Carcinoma)
Summary of the method: as §1

[10] = tested on: KYSE-180 (Esophageal Squamous Cell Carcinoma)
Summary of the method: as §1

[11] = tested on: U251 (Low Grade Glioma)
Summary of the method: as §1

[12] = tested on: ES1 (Ewing's Sarcoma)
Summary of the method: as §1

[13] = tested on: COLO-678 (Colorectal Carcinoma)
Summary of the method: as §1

[14] = tested on: WM-115 (Melanoma)
Summary of the method: as §1

[15] = tested on: HL-60 (Acute Myeloid Leukemia)
Summary of the method: as §1

[16] = tested on: PANC-08-13 (Pancreatic Carcinoma)
Summary of the method: as §1

[17] = tested on: CHP-212 (Neuroblastoma)
Summary of the method: as §1

[18] = tested on: BL-41 (Burkitt's Lymphoma)
Summary of the method: as §1

[19] = tested on: MOLT-16 (T-Lymphoblastic Leukemia)
Summary of the method: as §1

[20] = tested on: SU-DHL-8 (B-Cell Non-Hodgkin's Lymphoma)
Summary of the method: as §1

| SMILES | Bliss excess [1] | Bliss excess [2] | Bliss excess [3] | Bliss excess [4] | Bliss excess [5] | Bliss excess [6] | Bliss excess [7] | Bliss excess [8] | Bliss excess [9] | Bliss excess [10] | Bliss excess [11] | Bliss excess [12] | Bliss excess [13] | Bliss excess [14] | Bliss excess [15] | Bliss excess [16] | Bliss excess [17] | Bliss excess [18] | Bliss excess [19] | Bliss excess [20] |
| --- | --- | --- | --- | --- | --- | --- | --- | --- | --- | --- | --- | --- | --- | --- | --- | --- | --- | --- | --- | --- |
| C[C@@H](c1ccc2nccn2c1)n1nnc2ncc(-c3cnn(C)c3)nc21 [Savolitinib] + CC1(C)CCC(CN2CCN(c3ccc(C(=O)NS(=O)(=O)c4ccc(NCC5CCOCC5)c([N+](=O)[O-])c4)c(Oc4cnc5[nH]ccc5c4)c3)CC2)=C(c2ccc(Cl)cc2)C1 [Venetoclax] (first compound max 1 µM, 7x7, partner max 1 µM) | 0.0747 | -0.0414 | -0.0414 | -0.0352 | -0.0411 | 0.0191 | -0.028 | -0.0265 | -0.0468 | -0.0326 | -0.0938 | -0.0515 | -0.112 | -0.0346 | -0.0202 | -0.0436 | -0.0707 | -0.0365 | -0.0788 | -0.0419 |
| Cc1c2c(nn1C)CSCc1cc(n(C)n1)CSc1cc(c3ccccc3c1)OCCCc1c(C(=O)O)n(C)c3c-2c(Cl)ccc13 [AZD5991] + CCN(CCO)CCCOc1ccc2c(Nc3cc(CC(=O)Nc4cccc(F)c4)[nH]n3)ncnc2c1 [AZD2811] (first compound max 1 µM, 7x7, partner max 1 µM) | 0.178 | 0.0103 | -0.0164 | 0.0736 | -0.0116 | 0.012 | 0.0367 | -0.029 | -0.0077 | 0.102 | 0.098 | 0.0915 | -0.0673 | -0.0726 | -0.0001 | 0.0135 | -0.0496 | -0.0295 | -0.0114 | 0.0416 |
| Cc1c2c(nn1C)CSCc1cc(n(C)n1)CSc1cc(c3ccccc3c1)OCCCc1c(C(=O)O)n(C)c3c-2c(Cl)ccc13 [AZD5991] + CC1(C)CCC(CN2CCN(c3ccc(C(=O)NS(=O)(=O)c4ccc(NCC5CCOCC5)c([N+](=O)[O-])c4)c(Oc4cnc5[nH]ccc5c4)c3)CC2)=C(c2ccc(Cl)cc2)C1 [Venetoclax] (first compound max 1 µM, 7x7, partner max 1 µM) | 0.0732 | -0.0041 | 0.0268 | 0.0111 | -0.0489 | 0.0936 | 0.0031 | -0.0167 | 0.0436 | 0.0103 | -0.0068 | 0.0817 | – | -0.0496 | 0.0723 | -0.0411 | -0.0416 | 0.0108 | 0.063 | 0.0491 |
| C[C@@H](c1ccc2nccn2c1)n1nnc2ncc(-c3cnn(C)c3)nc21 [Savolitinib] + CN(CC[C@H](CSC1=CC=CC=C1)NC2=C(C=C(C=C2)S(=O)(=O)NC(=O)C3=CC=C(C=C3)N4CCC(CC4)[C@H](C5=CC=CC=C5C6=CC=C(C=C6)Cl)O)S(=O)(=O)C(F)(F)F)CCO [AZD4320] (first compound max 1 µM, 7x7, partner max 1 µM) | – | -0.0726 | -0.0097 | -0.0201 | – | – | 0.0315 | -0.0406 | -0.0713 | -0.0161 | -0.0546 | – | -0.0766 | – | -0.0536 | -0.0588 | -0.0613 | – | -0.0222 | 0.0282 |
| Cc1cc2ncnn2cc1Nc1ncc2c(n1)n(C1CCOCC1)c(=O)n2C [AZD7648] + CCN(CCO)CCCOc1ccc2c(Nc3cc(CC(=O)Nc4cccc(F)c4)[nH]n3)ncnc2c1 [AZD2811] (first compound max 10 µM, 7x7, partner max 1 µM) | -0.0225 | 0.0257 | – | 0.115 | 0.0283 | -0.011 | -0.0094 | 0.0208 | 0.005 | 0.0029 | -0.0046 | 0.0855 | -0.0119 | 0.0205 | -0.0639 | 0.0006 | -0.0162 | 0.0668 | 0.0058 | 0.038 |
| CN(C)CCCOc1ccc(-c2ccc3ncc4c(c3c2)n(C2CCOCC2)c(=O)n4C)cn1 [AZD0156] + C=CCn1c(=O)c2cnc(Nc3ccc(N4CCN(C)CC4)cc3)nc2n1-c1cccc(C(C)(C)O)n1 [AZD1775] (first compound max 1 µM, partner max 1 µM) | -0.0509 | -0.0282 | – | -0.0326 | -0.0556 | -0.0464 | -0.0154 | -0.0307 | -0.0013 | -0.0451 | 0.005 | -0.0018 | -0.0197 | -0.0383 | -0.0177 | -0.0586 | -0.0165 | 0.0047 | -0.0108 | 0.0032 |
| C=CCn1c(=O)c2cnc(Nc3ccc(N4CCN(C)CC4)cc3)nc2n1-c1cccc(C(C)(C)O)n1 [AZD1775] + O=C(c1cc(Cc2n[nH]c(=O)c3ccccc23)ccc1F)N1CCN(C(=O)C2CC2)CC1 [Olaparib] (first compound max 1 µM, partner max 10 µM) | 0.0597 | -0.0421 | – | -0.0415 | 0.0324 | 0.0059 | -0.0021 | -0.037 | -0.0145 | 0.0253 | -0.0154 | -0.0114 | -0.012 | -0.0169 | -0.0554 | -0.0095 | -0.0383 | -0.0211 | 0.0004 | -0.0157 |
| COc1cc2c(cc1OCCCCCOc1cc3c(cc1OC)C(=O)N1C=C(C)C[C@H]1C=N3)N=C[C@@H]1CC(C)=CN1C2=O [SG3199] + O=C(c1cc(Cc2n[nH]c(=O)c3ccccc23)ccc1F)N1CCN(C(=O)C2CC2)CC1 [Olaparib] (first compound max 0.001 µM, 7x7, partner max 10 µM) | 0.0238 | -0.0307 | – | -0.0049 | -0.0642 | -0.0206 | -0.075 | -0.0119 | -0.0495 | -0.0177 | -0.0016 | 0.0027 | -0.0144 | -0.0494 | -0.034 | -0.0319 | 0.0046 | -0.0163 | 0.0336 | 0.0547 |
| Cc1c2c(nn1C)CSCc1cc(n(C)n1)CSc1cc(c3ccccc3c1)OCCCc1c(C(=O)O)n(C)c3c-2c(Cl)ccc13 [AZD5991] + C[C@@H](Nc1cc(F)cc(F)c1)c1cc(C(=O)N(C)C)cc2c(=O)cc(N3CCOCC3)oc12 [AZD8186] (first compound max 1 µM, 7x7, partner max 3 µM) | -0.0278 | -0.047 | -0.0058 | -0.0268 | -0.0343 | 0.042 | 0.0705 | 0.0079 | 0.0406 | 0.0187 | -0.0334 | 0.013 | -0.0613 | 0.018 | – | 0.0187 | -0.0203 | -0.0096 | -0.0154 | -0.0961 |
| CC(=O)c1c(C)c2cnc(Nc3ccc(N4CCNCC4)cn3)nc2n(C2CCCC2)c1=O [Palbociclib] + CN(CC[C@H](CSC1=CC=CC=C1)NC2=C(C=C(C=C2)S(=O)(=O)NC(=O)C3=CC=C(C=C3)N4CCC(CC4)[C@H](C5=CC=CC=C5C6=CC=C(C=C6)Cl)O)S(=O)(=O)C(F)(F)F)CCO [AZD4320] (first compound max 10 µM, 7x7, partner max 1 µM) | – | -0.0021 | -0.0298 | -0.0299 | – | – | -0.0552 | -0.0081 | -0.0038 | -0.0269 | -0.0989 | – | -0.0747 | – | -0.102 | -0.0459 | -0.0366 | – | -0.0494 | -0.106 |
| CN(CCO)CC[C@H](CSc1ccccc1)Nc1ccc(S(=O)(=O)NC(=O)c2ccc(N3CCC([C@@H](O)c4ccccc4-c4ccc(Cl)cc4)CC3)cc2)cc1S(=O)(=O)C(F)(F)F [AZD4320] + C[C@@H](Nc1cc(F)cc(F)c1)c1cc(C(=O)N(C)C)cc2c(=O)cc(N3CCOCC3)oc12 [AZD8186] (first compound max 1 µM, 7x7, partner max 3 µM) | 0.0428 | -0.0059 | 0.0502 | 0.0307 | -0.0232 | 0.0142 | 0.0982 | 0.0608 | -0.034 | 0.0343 | -0.0013 | 0.0591 | 0.0221 | 0.0755 | – | -0.007 | -0.072 | 0.0388 | -0.0157 | -0.0714 |
| C[C@@H]1COCCN1c1cc(C2([S@](C)(=N)=O)CC2)nc(-c2ccnc3[nH]ccc23)n1 [AZD6738] + O=C(c1cc(Cc2n[nH]c(=O)c3ccccc23)ccc1F)N1CCN(C(=O)C2CC2)CC1 [Olaparib] (first compound max 10 µM, 7x7, partner max 10 µM) | 0.024 | 0.0074 | – | -0.0454 | 0.0285 | 0.0543 | 0.0114 | 0.0598 | 0.0033 | 0.0762 | 0.056 | -0.0157 | -0.0046 | 0.0166 | -0.0275 | 0.0021 | -0.0095 | -0.0556 | -0.0064 | 0.0343 |
| COc1cccc(OCCCN)c1-c1cc(Nc2cnc(C#N)cn2)n[nH]1 [Prexasertib] + Cc1cc2ncnn2cc1Nc1ncc2c(n1)n(C1CCOCC1)c(=O)n2C [AZD7648] (first compound max 1 µM, 7x7, partner max 10 µM) | 0.0003 | 0.0065 | – | -0.0133 | -0.032 | -0.0489 | -0.0156 | -0.0198 | -0.0046 | -0.0431 | -0.0114 | 0.0088 | -0.0384 | -0.0102 | 0.0133 | -0.0089 | -0.0467 | -0.0265 | 0.0121 | -0.0221 |
| Cc1cc2ncnn2cc1Nc1ncc2c(n1)n(C1CCOCC1)c(=O)n2C [AZD7648] + O=C(c1cc(Cc2n[nH]c(=O)c3ccccc23)ccc1F)N1CCN(C(=O)C2CC2)CC1 [Olaparib] (first compound max 10 µM, 7x7, partner max 10 µM) | 0.0433 | -0.0131 | – | -0.0367 | -0.0776 | -0.0626 | 0.0017 | -0.0351 | -0.0484 | -0.0406 | 0.0043 | -0.0604 | -0.0177 | -0.0391 | -0.0151 | -0.0538 | -0.0391 | -0.0368 | -0.019 | 0.0195 |
